Data as given in patent US12397067B2, “Sulfur- or heavy atom-containing nanoparticles, methods of making same, and uses thereof” (Cornell University, priority 2017, dated 2025).

Tests used:
[1] = Singlet oxygen quantum yield determination with DPBF sensor, relative to methylene blue; details: FIG. 15b inset, 635 nm exposure
Method: Determination of singlet oxygen quantum yields, ΦΔ. Measurements were carried out in ethanol with DPBF as a singlet oxygen detector molecule. The DPBF band at 410 nm and λmax of each dye were absorption matched across a particle series. For measurements of effective ΦΔ samples were concentration matched. The spectra were exposed and measured in a 100 μL quartz cuvette (Starna). Samples were evenly exposed to a 635 nm solid-state laser at 3 mW/cm^2 and 1 cm spot size. Measurements were started immediately after DPBF addition. The decrease of the 410 nm DPBF band was measured at various exposure times and corrected against a baseline. ΦΔ for each sample was calculated by comparing to MB (ΦΔ=0.520 in ethanol) as a standard (see example calculations).
Example calculation to determine singlet oxygen quantum yield, ΦΔ. ΦΔ(sample) is determined relative to a standard with known ΦΔ(standard) using equation (5):
[formula] Here, we used methylene blue (MB) as a standard with known ΦΔ(MB)=0.520. With the slopes, m, from the linear fits through the values of the 410 nm DPBF absorption band at different exposure times, ΦΔ(sample) can be calculated. With the values from FIG. 15b inset m(ATTO647N 7.5% iC′ dots)=0.00314 s^−1 and m(MB)=0.02506 s^−1, Φ^Δ (ATT0647N 7.5% iC′ dots)=0.520([…])=0.065.

[2] = in ethanol; cited from earlier work
[3] = tested on: BxPC3 pancreatic cancer cells; test: Cell toxicity study, Presto Blue % viability; assay type: cell-based; details: 14 mM (10% of typical imaging concentration), 16 hours
Method: Cell toxicity studies. BxPC3 pancreatic cancer cells were maintained in RPMI 1640 supplemented with 10% FBS at 37° C. with 5% CO2. To measure effects of C′ dots or βME on cells, cells at ˜70% confluence were washed with PBS, exposed to trypsin, resuspended, and dispensed into 96-well tissue culture plates (20,000 cells per well). Cells were allowed to settle overnight, forming a monolayer ˜70-80% confluent. The medium was removed from each well, and replaced with medium supplemented with varying amounts of either 60% srC′ dots or βME, or with DMSO (carrier agent) alone as a control, as well as 1× Pen-Strep antibiotic. Cells were then incubated for 6 days (srC′ dots) or 16 hours ((ME). Following incubation, medium was removed, cells washed with fresh medium and then incubated for one hour with fresh medium and Presto Blue per the manufacturer's recommendations. The absorbance of the Presto Blue was determined at 570 nm (background 600 nm) using a Tecan Safire microplate reader. Absorption was compared to that of a blank (medium plus Presto Blue in unused wells) to determine % viability of remaining cells, with the DMSO control lane defined as 100% viability, and the empty wells defined as 0% viability. All experiments were performed in triplicate.

Row | Compound | slope m of linear fit of ln relative DPBF absorption at 410 nm vs exposure time [1] | singlet oxygen quantum yield, ΦΔ (known value of standard) [2] | %-cell viability [3]
1 | CN(C)c1ccc2nc3ccc(=[N+](C)C)cc-3sc2c1 [MB, methylene blue] | 0.02506 s^−1 | 0.520 | –
2 | OCCS [βME, β-mercaptoethanol] | – | – | substantial cell death
